Results from the METLIN SMRT retention time set (Domingo-Almenara et al. 2019).

Assay: gradient 5% acetonitrile 3 min, to 50% in 2 min, to 85% in 15 min, held 3 min, 100 µL/min
Conditions: column: Zorbax Extend-C18 2.1 x 50 mm; eluents: water / acetonitrile, 0.1% formic acid
In short: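 Each retention time is based on an adduct peak selected computationally and verified by manual inspection. Measurements used HPLC–quadrupole time-of-flight mass spectrometry in positive and negative ionization mode on mixtures of ~100 pure standards. Chromatography ran on a Zorbax Extend-C18 column (2.1 × 50 mm, 1.8 μm) at 100 μL/min with water and acetonitrile, each containing 0.1% formic acid, and dead and dwell volumes of 40 μL and 900 μL.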

Compound | RP-LC retention time [s]
CCOc1ccc(OCC)c(NC(=O)Cc2csc3nc(-c4ccc(OC)c(OC)c4)cn23)c1 | 870
Cc1ccccc1-c1noc(C2CC(=O)N(c3ccc(Cl)cc3)C2)n1 (stereo not drawn) | 1090
C=CC(=O)Nc1cccc(Oc2nc(Nc3ccc(N4CCN(C)CC4)cc3OC)ncc2Cl)c1 | 718
CCCN1CCN(C(=O)c2cccn2Cc2noc(-c3ccccc3)n2)CC1 | 653
COc1ccc(-c2nc3cnccn3c2Nc2cc(C)cc(C)c2)cc1OC | 874
COc1ccc(F)cc1S(=O)(=O)N1CCC2(CC1)NCCCN=C2NC1CCCC1 | 607
CC(C)NC(=O)N(C)Cc1nc2cc(C(=O)N3CCCC3)ccc2n1C | 550
CNC(=O)[C@@H]1C[C@H](Oc2ccccc2)CN1C(=O)Cn1c(=O)oc2ccccc21 | 732
NCCC1CCN(C(=O)Nc2ccccc2)CC1 | 577
COc1ccc(OC)c(CCN2CC(=O)N(c3ccc(C)c(Cl)c3)[C@@H]3CS(=O)(=O)C[C@@H]32)c1 | 921
Cc1cccc(-c2noc(-c3ccc(N4CCN(C5CCCCC5)CC4)nc3)n2)c1 | 831
Cc1ccc(C)c(NC(=O)N2CCN(c3cnn4c(C)nnc4c3)CC2)c1 | 629
Cc1cc2n(n1)CCCN2C(=O)CCC(=O)N1CCN(c2cc(Cl)ccc2C)CC1 | 852
O=C(Nc1ccc2c(c1)OCO2)N1CCC(N2CCN(Cc3ccc(F)cc3)C2=O)CC1 | 788
Cc1cc(C)cc(C(=O)N2CCCC(C(=O)NC3CCCCCCC3)C2)c1 (stereo not drawn) | 1040
Cc1ccc2[nH]c(=O)c(CCC(=O)O)cc2c1 | 651
Cc1nnc(-c2ccc3ccn(CC(=O)NCc4ccc5c(c4)OCO5)c3c2)o1 | 756
CCOc1ccc(S(=O)(=O)N(CC(=O)N2CCNCC2)CC2CCCN2CC)cc1 (stereo not drawn) | 585
Cc1ccccc1NC(=O)c1nnc(CSCC(=O)N2CCN(c3ccccn3)CC2)s1 | 637
CCOCC(=O)N1CCN(S(=O)(=O)c2c(C)nn(C(C)C)c2C)CC1 | 702
O=c1ccn(-c2ccc(Cl)cc2)nc1-c1nc(-c2ccccc2OCc2ccccc2)no1 | 845
COc1ccc(NS(=O)(=O)c2ccc(-c3nnc(C4CCC4)o3)o2)cc1Cl | 936
COc1ccc(S(=O)(=O)N2CCC(c3noc(-c4cccnc4)n3)C2)cc1 (stereo not drawn) | 793
COc1ccc(-c2nc(-c3ccc4c(c3)ncn4CCN3CCOCC3)no2)c(C)c1 | 666
Cc1ccc(C(=O)COC(=O)c2ccc3nc(C)c(C)nc3c2)cc1 | 965
COc1ccc(-c2nc(NCCCN3CCC(N4CCCCC4)CC3)c3ccccc3n2)cc1 | 1210
COc1ccc(-n2cc(C(=O)OCCc3ccccn3)c3cc(OC)c(OC)cc3c2=O)cc1 | 681
CCc1ccc(NC(=O)C2CC(=O)N(CCc3c[nH]c4ccc(OC)cc34)C2)cc1 (stereo not drawn) | 831

Compound | RP-LC retention time [s]
COc1ccc(NC(=O)Cn2c(=O)c3cc(-c4cccs4)nn3c3ncccc32)cc1 | 810
Cc1ccccc1-c1noc(CN2N=NC3C(=O)N(c4ccc(C(C)C)cc4)C(=O)C32)n1 (stereo not drawn) | 1150
CC(C)NC(=O)CN1C(=O)C2CCCCN2c2ccc(C(=O)N3CCCCC3)cc21 (stereo not drawn) | 735
Cc1ccccc1NC(=O)CSc1ccc(-n2nccc2C)nn1 | 869
O=C(NCc1ccccc1)c1cn(-c2ccc(-c3nc(C4CC4)no3)cn2)cn1 | 915
CCCn1cc(C(=O)NC2CCN(Cc3ccccc3)CC2)c2cccnc21 | 624
O=C(Nc1nc(-c2ccc(-c3ccccc3)cc2)cs1)C1CCCC1 | 1260
O=C(Cc1ccccc1Cl)Nc1cnc(N2CCCC2)nc1 | 604
CC(C)c1cc(C(=O)NC2CC2)nc2cc(-c3ccccn3)nn12 | 819
O=C(NCc1ccc2c(c1)OCO2)c1nnc2n(c1=O)CCN2c1ccc(F)cc1 | 683
C=CCN1CC[C@@]2(C)c3cc(O)ccc3CC1[C@@H]2C | 644
CCCS(=O)(=O)N1CCC2(CC1)CN(Cc1ccc(OC)cc1)C2=O | 787
CCOC(=O)c1nc(N2CCC(Cc3ccccc3)CC2)c2ccccc2n1 | 979
CC(=O)N(Cc1nn(C)c2c1CN(S(=O)(=O)c1cc(C)cc(C)c1)CC2)c1ccccc1 | 856
Cc1cccc(N2CCN(S(=O)(=O)c3cc(-c4cc(C(F)(F)F)on4)cs3)CC2)c1C | 1420
O=C(c1ccc(-c2cccnc2)nc1)N1CCN(c2cccc(Cl)c2)CC1 | 726
CCNC(=O)C1CCCN(c2nc3ncn(CC(=O)Nc4cc(C)ccc4C)c(=O)c3s2)C1 (stereo not drawn) | 673
O=C1NC(=S)S/C1=C\c1ccccc1C(=O)O | 835
COc1cccc(CNC(=O)C2CCN(S(=O)(=O)c3cn(C)cn3)CC2)c1 | 656
O=C(c1cn2ccnc(-c3ccccc3)c2n1)N1CCN(C(=O)c2ccco2)CC1 | 686
Cc1ccc(-c2cn3c(CC(=O)NC4CCCCC4)csc3n2)cc1C | 829
Cc1cc2nc(CN3CCN(Cc4ccccc4)CC3)c(=O)[nH]c2cc1C | 620
COc1ccccc1-c1ccc(SCc2cccc(C)c2)nn1 | 1080
CC(C)NC(=O)c1ccc(OCC2CCCN2C(=O)c2ccc(N(C)C)cc2)cc1 (stereo not drawn) | 799
CCC(=O)N1CCc2cc(N3CC(C(=O)NCC(C)C)CC3=O)ccc21 (stereo not drawn) | 687
COC(=O)c1ccc2c(=O)n(-c3ccc(OC)cc3)c(N3CCSC3)nc2c1 | 1050
CCOc1cccc(-c2noc(Cc3nnc(-c4cccc(F)c4)o3)n2)c1 | 1070

Results, then the molecule that gave them:

RP-LC retention time [s] | Compound
652 | COc1ccc(NC(=O)CSc2nc3nc(C)cc(C)n3n2)cc1OC
618 | O=C1OC2CC1N(C(=O)Cn1c(=O)oc3ccccc31)C2 (stereo not drawn)
804 | COCCNC(=O)C1CCN(C(=O)c2cc3oc(C)cc3n2Cc2c(F)cccc2Cl)CC1
665 | CCOCCCNC(=O)C1CCCN(c2cc(=O)n(C)c(=O)n2C)C1 (stereo not drawn)
702 | COc1cccc(N2CCN(C(=O)C3CCN(S(=O)(=O)c4cn(C)c(C)n4)CC3)CC2)c1
805 | CCN1C(=O)c2cccnc2Sc2cc(C(=O)NCc3ccc(F)cc3)ccc21
1160 | Cc1cccc(-c2noc(CN3C(=O)COc4ccc(Cl)cc43)n2)c1
944 | CCc1noc(-c2ccc(-n3cnc(C(=O)N(C)C4CCCCC4)c3)nc2)n1
608 | NC(=O)C1CCN(C(=O)c2cn(-c3cccc(F)c3)nn2)CC1
972 | CC1=C(C(=O)Nc2ccc(F)cc2C)C2(CCCCCC2)OC1=O
716 | O=C1OCC/C1=C\OCCCO/C=C1\CCOC1=O
1210 | Cc1cc2oc(C(=O)NCCc3nc(-c4ccccc4)no3)c(C)c2cc1C
983 | CCSc1nnc(-c2nn(C)c3c2CN(S(=O)(=O)c2ccc(Cl)cc2)CC3)n1CC
805 | O=S(=O)(c1cccc(-c2cn3cc(Cl)ccc3n2)c1)N1CCCC1
654 | Cc1cnc(C2CC2)n1C1CCCN(S(=O)(=O)c2ccccc2)C1 (stereo not drawn)
759 | Cc1ccc(C(=O)CC2(O)C(=O)Nc3ccccc32)c(C)c1 (stereo not drawn)
647 | Cc1ccn2cc(-c3ccc(NC(=O)c4cccc(F)c4)cc3)nc2n1

RP-LC retention time [s] | Compound
1100 | COc1cccc(-c2nc(C3CC(=O)N(c4ccc(F)c(Cl)c4)C3)no2)c1 (stereo not drawn)
1060 | CCCCc1ccc(Nc2ncccc2S(N)(=O)=O)cc1
721 | CN1C(=O)COc2cc(-c3noc(C(=O)NCCc4ccc(S(N)(=O)=O)cc4)n3)ccc21
1130 | Cc1nn(CC(=O)NC2CCCCC2)c(=O)c2c(-n3cccc3)n(-c3ccc(Cl)cc3)nc12
1170 | CCc1nc2cc(-c3noc(COc4ccc(Cl)cc4)n3)ccc2o1
683 | COc1cccc(Nc2c(C(N)=O)cnc3c(C)cc(S(=O)(=O)c4cccc(C(=O)N(C)C)c4)cc23)c1
615 | O=C(O)c1cc(N2CCN(CC(=O)N3CCCCCC3)CC2)ccc1NC(=O)C1CC1
704 | CC1Oc2ccc(-c3csc(NC(=O)c4cccnc4)n3)cc2NC1=O (stereo not drawn)
919 | CCCCS(=O)(=O)c1cc2c(cc1NC(=O)Cc1ccc(Cl)cc1)n(C)c(=O)n2C
593 | COc1ccc(NC(=O)CSc2nccc(N3CCCC3)n2)cc1Cl
804 | Cc1ccc(C)c2sc(NC(=O)CN(C)S(C)(=O)=O)nc12
852 | Cc1oc(-c2ccn[nH]2)cc1S(=O)(=O)Nc1ccc(F)c(Cl)c1
1140 | O=c1c2cc(-c3cccc4ccccc34)nn2ccn1Cc1nc(-c2ccccc2)no1
870 | CC(C)Oc1ccc(-c2nc3ncccn3c2NC2CCCCC2)cc1
748 | CCCNC(=O)C1CCCN(c2ccc(SCC(=O)Nc3ccc(C)c(Cl)c3)nn2)C1 (stereo not drawn)
647 | CC(C)Oc1cc2oc(=O)cc(-c3ccccc3)c2cc1CCC(=O)N1CCN(c2ccccn2)CC1
